Data set [1] concerns RYR paralogs found in zebrafish skeletal muscle. As to the kind of experiment: [3H]ryanodine ligand binding assay, adult zebrafish tail muscle microsomes. The following applies: for Max. response SEM (%): maximum [3H]Ry binding response compared to DMSO control, mean ± SEM; for pEC50: relative EC50, concentration causing half-maximum response, PCB 0.1–50 μM; for RYR activity (in words): zebrafish muscle; for EC2X: concentration causing two-fold induction in ligand binding vs DMSO control. The protocol:
Sensitization of the zebrafish RYR by ortho-PCBs was measured using [^3H]ryanodine ([^3H]Ry) ligand binding assays as previously described ([Fritsch and Pessah, 2013]). Briefly, crude microsomal protein preparations were created from the tail (post dorsal fin) muscle (primarily white skeletal muscle) of six adult zebrafish (∼1 year old) that was homogenized in a buffer containing 320 mM sucrose, 5 mM HEPES, 1 mM PMSF, 10 mM NaF, 2 mM β-Glycerol, 5 mM Na4P2O7, 0.5 mM Na3VO4 and 2 μg/L leupeptin (pH 7.2). The homogenate was centrifuged at 5,000 × g (4°C) for 15 min. The pellet was re-homogenized in 5 ml homogenization buffer and centrifuged at 5,000 × g. Supernatants were combined for ultracentrifugation at 100,000 g (4°C for 1 h). The resultant pellet was re-suspended in a buffer of 320 mM sucrose and 5 mM HEPES (Sigma-Aldrich, St. Louis, MO, United States) at pH 7.2. Protein concentrations were determined in triplicate using a BCA Assay (Fisher Scientific, Waltham, MA, United States). [^3H]Ry ligand binding assays were conducted with 40 μg/ml of the crude protein homogenate in the presence of DMSO (0.5%) or 0.1–50 μM of individual PCB congeners in 0.5% DMSO. Tests were run using 5 nM [^3H]Ry (Perkin Elmer Waltham, MA, United States), 250 mM KCl, 20 mM HEPES, 15 mM NaCl, and 50 μM CaCl2 (pH 7.1) and incubated for 16 h at 25°C. Non-specific binding was determined with the addition of 10 µM ryanodine (Tocris Bioscience, Bristol, United Kingdom) and 200 μM EGTA (Sigma-Aldrich, St. Louis, MO, United States). Assays were terminated by rapid filtration through Whatman GF/B filter paper (Brandel, Gaithersburg, MD, United States) and washed with ice-cold buffer containing 140 mM KCl, 10 mM HEPES, and 0.1 mM CaCl2, pH 7.4. Bound radioligand was measured by liquid scintillation counting (Beckman Coulter, Indianapolis, IN, United States). PCB-induced [^3H]Ry binding was assessed in two different protein preparations, and each assay was run in triplicate. Individual PCB concentration-response curves were determined using non-linear regression (GraphPad Prism 6.0, GraphPad Software Inc., San Diego, CA, United States).

For the next data set, the system named is larval zebrafish. As to the kind of experiment: Larval photomotor behavior test (light/dark locomotor test). The following applies: for Behavior score (total change from control): sum of absolute [1 − (AUC value/DMSO)] over all concentrations, epochs and 3, 4, 5 dpf; for distance traveled relative to vehicle control: on average across larval ages. Type of data set: in vivo. The protocol:
At 4 hpf, embryos were treated with 50 µl of 41 mg/ml protease from Streptomyces griseus (P5147, Sigma-Aldrich, St. Louis, MO, United States) in 25 ml of FW for a maximum of 6 min to remove the chorion ([Truong et al., 2011]). At 5 hpf, embryos were placed in individual wells of 96-well plates filled with 100 µl of EM. At 6 hpf, embryos were exposed to a 2× concentration of the selected PCB congeners or controls that were diluted in 100 μl EM to produce a 1× concentration in a total of 200 µl solution. […] After exposure, plates were covered with Parafilm M (Bemis NA, Neenah, WI, United States) to reduce evaporation and placed in an incubator at 28.5°C with 14 h light (∼300 lux)/10 h dark cycles. Final DMSO concentrations were 0.2% (vol/vol) for all exposures. Fish were statically exposed until 5 dpf.
Larval locomotor tests were performed at 3, 4, and 5 dpf. Vehicle and PCB-exposed larvae in 96-well plates were placed in a DanioVision behavior system (Noldus Information Technology, Leesburg, VA, United States) and subjected to a 35 min light/dark locomotor test. System and plate temperature were maintained at 28.5 ± 0.5°C using a temperature control unit from Noldus. The testing paradigm consisted of a 10 min light period (∼1,900 lux) to allow for acclimation (5 min) and to record baseline swimming (5 min). This was followed by a 5 min dark period (∼0 lux) to stimulate increased swimming behavior and a 5 min light period (∼1,900 lux) to stimulate freezing behavior. The last 15 min consisted of a dark period (∼0 lux) to observe increased swimming behavior and acclimation to the dark conditions.
The distance traveled binned per minute by each larva during the 35-min observation test period was recorded via continuous tracing using a DanioVision system camera with an infrared filter to allow recording in both light and dark conditions. Movement was tracked using EthoVisionXT software (Noldus Information Technology) and exported to Excel and Prism 6.0 (GraphPad Software) for analysis and visualization. Dead and/or malformed larvae (as noted by observation under dissecting scope) were excluded from the behavior analysis.
The trapezoidal rule was used to compute the area under the curve (AUC) for each fish per day per lighting condition. The first 5 min of the 35-min observation period was removed to account for initial acclimation. Therefore, data were analyzed for the following time epochs: Light 1 (L1) = 6–10 min, Dark 1 (D1) = 11–15 min, Light 2 (L2) = 16–20 min, and Dark 2 (D2) = 21–35 min. Mixed effects regression models, including zebrafish-specific random effects, were used to assess differences between groups. DMSO groups from each spawn date (≥3 independent spawns) and plate were combined in the analysis. Separate models were fit for each congener. New variables were defined to capture differences in the AUC between Light 1 and Dark 1, Dark 1 and Light 2, and Light 2 and Dark 2, to measure change in distance traveled when transitioning from light to dark or dark to light. Contrasts were specified to compare these transitions and the AUC during each of the lighting conditions between the exposed groups and the DMSO control group. […] Due to some zeroes in the AUC, all values were shifted by 0.1 prior to taking the natural logarithm. Concentration (0.1, 0.3, 1, 3, 10 µM and DMSO), day (3, 4, 5 dpf), and the transition variables were all of interest in the models, including their interactions. Akaike information criterion was used for model selection and Wald tests for comparing groups. All analyses were conducted using SAS version 9.4.
The neurotoxic potential of the congeners tested in this study were ranked based on the three endpoints measured in this study: RYR binding, behavior, and body burden. Congeners were ranked relative to each other for each individual endpoint from 1 (highest) to 6 (lowest), and then the three scores for each congener averaged to obtain an overall relative ranking for each congener. […]

Another data set deals with RYR. Further details: method as in Pessah et al., 2006; Holland et al., 2017a. The following applies: ref Pessah et al., 2006; Holland et al., 2017a; cited from earlier work.

pEC50: −log10 of the molar value. Entries after “also recorded” stand apart in the source; their conditions may differ. A value given as a limit tells only on which side of the number the result lay.

As to `Clc1ccc(-c2ccc(Cl)cc2Cl)cc1` [PCB 28], the “concentration failing to cause a 2-fold (EC2X) increase in channel activity” value in data set [1] is reported as “above 10 µM”. In addition, in data set [1], the “Max. response SEM (%)” value was 170.60 ± 13.28%. In addition, the negative-log EC50 (pEC50) (usually the negative decadic logarithm of the EC50, by convention in mol/L) in data set [1] was 6.17. Also, in data set [1], the “RYR activity (in words)” value is on record as “limited”. Moreover, the “increase of L1-D1 transition relative to vehicle controls” value with larval zebrafish (0.1 µM, 4 dpf) is 0.9 mm; in the data set on larval zebrafish (0.3 µM, 4 dpf), 1.3 mm; in the data set on larval zebrafish (1 µM, 4 dpf), 0.87 mm; in the data set with larval zebrafish (3 µM, 4 dpf), 0.9 mm; in the data set on larval zebrafish (10 µM, 4 dpf), 0.8 mm. The “distance moved relative to vehicle control” value is reported as “significantly more” in the data set with larval zebrafish (0.1 µM, 4 dpf, D1); “significantly more” in the data set on larval zebrafish (0.3 µM, 4 dpf, D1); “traveling less” with larval zebrafish (0.3 µM, 4 dpf, L1); “significantly more” in the data set with larval zebrafish (1 µM, 4 dpf, D1); “significantly less” with larval zebrafish (3 µM, 3 dpf, D2); “significantly more” in the data set on larval zebrafish (3 µM, 4 dpf, D1). For the same molecule, the “distance moved relative to vehicle control” value in the data set on larval zebrafish (10 µM, 3 dpf, D2) was “significantly less”; in the data set on larval zebrafish (10 µM, 5 dpf, L2) it was “moved less”. In addition, the “Behavior score (total change from control)” value in the data set on larval zebrafish was 10.83. Moreover, the “in vitro potency at the RYR (in words)” value with RYR is listed as “negligible”.
For the molecule `Clc1ccc(-c2ccc(Cl)c(Cl)c2)c(Cl)c1` [PCB 66], in data set [1], the “concentration failing to cause a 2-fold (EC2X) increase in channel activity” value is on record as “above 10 µM”, the pEC50 is under 4.30 and the “RYR activity (in words)” value is “negligible; also recorded: limited”. The “distance traveled relative to vehicle control” value in the data set on larval zebrafish (0.11 µM, L1) is given as “significantly decreased”. Moreover, the “distance traveled relative to vehicle control” value in the data set with larval zebrafish (1 µM, L1) is given as “significantly decreased”. Moreover, the “Behavior score (total change from control)” value in the data set on larval zebrafish is 14.39. The “in vitro potency at the RYR (in words)” value in the data set on RYR is reported as “negligible”.
Molecule `Clc1cccc(-c2c(Cl)ccc(Cl)c2Cl)c1Cl` [PCB 84] registered an EC2X in data set [1] of 6.97. Also, the “maximal effect compared to the DMSO control” value in data set [1] (concentrations above 3 µM) came to 400%. Also, the “change in RYR activity at low concentrations” value in data set [1] (concentrations below 3 µM, biphasic effect) was “significant reduction”. In addition, the “Max. response SEM (%)” value in data set [1] stood at 437.50 ± 35.72%. Besides, the pEC50 in data set [1] was 5.05. Further, the “distance moved relative to vehicle control” value in the data set on larval zebrafish (0.1 µM, 3 dpf, D1) is “moved less”; in the data set with larval zebrafish (0.1 µM, 3 dpf, D2), “moved less”; in the data set on larval zebrafish (0.1 µM, 3 dpf, L2), “moved less”; with larval zebrafish (0.3 µM, 4 dpf, L1) it was “significantly less movement”; in the data set with larval zebrafish (0.3 µM, 5 dpf, L1), “moved more”; in the data set on larval zebrafish (1 µM, 4 dpf, L1) it was “significantly less movement”. The “distance moved relative to vehicle control” value in the data set on larval zebrafish (3 µM, 3 dpf, L2) is “moved more”; in the data set on larval zebrafish (3 µM, 5 dpf, L1), “moved more”; with larval zebrafish (10 µM, 3 dpf, D1), “moved more”; in the data set with larval zebrafish (10 µM, 3 dpf, D2), “moved more”; with larval zebrafish (10 µM, 3 dpf, L1), “Increased”; with larval zebrafish (10 µM, 3 dpf, L2) it was “Increased”. The “distance moved relative to vehicle control” value in the data set on larval zebrafish (10 µM, 5 dpf, L1) is “moved more”. In addition, the “L1-D1 transition relative to vehicle control” value is given as “moved more” in the data set with larval zebrafish (0.3 µM, 4 dpf); “moved more” in the data set on larval zebrafish (1 µM, 4 dpf); “increased less” with larval zebrafish (3 µM, 5 dpf); “moved less” in the data set on larval zebrafish (10 µM, 4 dpf); “increased less” with larval zebrafish (10 µM, 5 dpf). Besides, in the data set with larval zebrafish, the “Behavior score (total change from control)” value stood at 28.93. For the same molecule, the “in vitro potency at the RYR (in words)” value with RYR is “potent”.
Turning to `Clc1cc(Cl)c(-c2ccc(Cl)c(Cl)c2Cl)cc1Cl` [PCB 138], the EC2X in data set [1] was determined as 4.18. In data set [1], the “Max. response SEM (%)” value was 388.20 ± 74.93%. The molecule also gave a pEC50 in data set [1] of 5.02. Further, in data set [1], the “RYR activity (in words)” value is “moderate”. In addition, the “increase of L1-D1 transition compared to the control group” value came out at 0.821 with larval zebrafish (0.3 µM, 4 dpf) and 0.68 in the data set on larval zebrafish (1 µM, 4 dpf). Besides, the “distance moved relative to vehicle control” value is listed as “moved more” with larval zebrafish (1 µM, 3 dpf, D1); “moved more” in the data set on larval zebrafish (3 µM, 3 dpf, D1); “moved more” in the data set on larval zebrafish (3 µM, 3 dpf, D2); “moved more” with larval zebrafish (10 µM, 3 dpf, D1); “moved more” with larval zebrafish (10 µM, 3 dpf, D2); “moved less” in the data set on larval zebrafish (10 µM, 5 dpf, D2). Moreover, the “decrease of L1-D1 transition compared to controls” value with larval zebrafish (3 µM, 5 dpf) is on record as 0.7. The “decrease of L1-D1 transition compared to the control group” value in the data set with larval zebrafish (10 µM, 4 dpf, not quite statistically significant (p = 0.06)) was found to be 0.6. Further, in the data set with larval zebrafish, the “Behavior score (total change from control)” value was found to be 29.32. Moreover, the “in vitro potency at the RYR (in words)” value in the data set on RYR was “moderate”.

Source of the values: article PMC9582434, “Ryanodine receptor-active non-dioxin-like polychlorinated biphenyls cause neurobehavioral deficits in larval zebrafish” (Frontiers in Toxicology, 2022).
